Reference: patent publication US20230107216A1, “PANTETHEINE DERIVATIVES AND USES THEREOF” (Comet Therapeutics, Inc., priority 2018, published 2023)
Where two headings read alike, the source gives them in different places.

Columns and labels:
[1] = tested on: Venular Endothelial cells (HUVEC) (4H system); assay: BioMAP 4H system (IL-4 and histamine); format: cell-based, human; conditions: 10 uM; procedure of Example 826
[2] = tested on: Peripheral blood mononuclear cells co-cultured with venular endothelial cells (HUVEC) (LPS system); assay: BioMAP LPS system; format: cell-based, human; conditions: procedure of Example 827
[3] = tested on: Peripheral blood mononuclear cells co-cultured with B-cells (BT system); assay: cells; conditions: Homo sapiens, 72 h, read-out: % decrease in sIL-17
[4] = tested on: Bronchial epithelial cells (BE3C system); assay: BioMAP BE3C system (IL-1β, TNFα, IFNγ); format: cell-based, human; conditions: Homo sapiens, Epithelial cell, 24 h; 10 uM; procedure of Example 831; read-out: % decrease in MMP-1
[5] = tested on: Keratinocytes co-cultured with dermal fibroblast (KF3CT system); assay: BioMAP KF3CT system (IL-1β, TNFα, IFNγ, TGFβ); format: cell-based, human
Procedure: (§1) The BioMAP platform (BioMAP® Diversity PLUS® Panel from Eurofins) is an in vitro phenotypic profiling technology that screened the compounds of the present disclosure (hereafter indicated as test agents) in human primary cell-based systems modelling complex tissue and disease states. The BioMAP assays were performed using the Eurofin's BioMAP Technology Platform as (see references 1 to 13 in the example 824 section) to model different diseases on primary cell-based model systems. These systems consisted of either single primary cell types or co-culture cells. Adherent cell types were cultured or co-cultured in 96 or 384-well plates until confluence followed by the addition of compounds prepared in DMSO at a final concentration of ≤0.1%. In each cell-based system, primary cells from heathy donors (2-6 donors) were pooled and treated with compounds at 1 and 10 μM dose 1h prior to stimulation and remain in culture as indicated in Example 825, Example 826, Example 827, Example 828, Example 829, Example 830, Example 831, Example 832, Example 833, Example 834, Example 835, Example 836 and Example 837. For on the BioMAP® Diversity PLUS® Panel, please see the following references, which are incorporate herein.
Following the general procedure as described in Example 824, Keratinocytes were co-cultured with dermal fibroblast (KF3CT system) and treated with IL-1β, TNFα, IFNγ and TGFβ for 24h in the presence or absence of the compounds to model psoriasis, dermatitis and skin biology. Biomarkers read out were; MCP-1, ICAM-1, IP-10, IL-8, MIG, IL-1α, MMP-9, PAI-1, SRB, TIMP-2, uPA.

[6] = tested on: Venular Endothelial cells (HUVEC) (3C system); assay: BioMAP 3C system (IL-1β, TNFα, IFNγ); format: cell-based, human; conditions: 10 uM; procedure of Example 825
Procedure: as §1
Following the general procedure as described in Example 824, Venular Endothelial cells (HUVEC) (3C system) were treated with IL-1β, TNFα, IFNγ for 24h to model Th1 driven cardiovascular and chronic inflammation diseases in the presence or absence of the compounds. Biomarker read out were; Tissue Factor, ICAM-1, E-selectin, uPAR (CD87), IL-8, MIG, HLA-DR, proliferation and SRB (Sulfo-rhodamine i.e. staining for protein content).

HepG2 cells = assay: Glucose uptake (Glucose Uptake-Glo); format: cell-based; conditions: Homo sapiens, read-out: % increase in Glucose Uptake
[7] = tested on: Dermal fibroblasts (HDF3CGF system); assay: BioMAP HDF3CGF system (IL-1β, TNFα, IFNγ, EGF, bFGF, PDGF-BB); format: cell-based, human; conditions: Homo sapiens, Fibroblast, 72 h; 10 uM; read-out: % increase in 72 Hour Proliferation
[8] = tested on: Propionic Acidemia (PA) primary fibroblasts GM00371; assay: Mitochondrial respiration, XFe96 Extracellular Flux Analyzer (OCR/ECAR), PA fibroblasts GM00371; format: cell-based; conditions: Homo sapiens, Fibroblast
[9] = tested on: Peripheral blood mononuclear cells co-cultured with B-cells (BT system)
[10] = tested on: Coronary artery smooth muscle cells (CASM3C system); assay: BioMAP CASM3C system (IL-1β, TNFα, IFNγ); format: cell-based, human
[11] = tested on: Bronchial epithelial cells co-cultured with dermal fibroblast (BF4T system); assay: BioMAP BF4T system (TNFα and IL-4); format: cell-based, human; conditions: 10 uM, procedure of Example 830
[12] = tested on: Subnormal activation of pyruvate dehydrogenase complex (PDH) primary fibroblasts GM01503 (GM1503A); assay: Total NAD+ + NADH and NAD+ (NAD/NADH-Glo), PDH fibroblasts GM01503; format: cell-based; conditions: Homo sapiens, Fibroblast, PDH GM1503A P10, assay condition A, 24h, read-out: Increase in Total NAD+ + NADH
Procedure: (§2) Primary adherent fibroblasts were cultured in minimum essential medium (MEM) (Gibco, 25030081) supplemented with 2 mM L-Glutamine (Gibco, 25030081), 15% fetal bovine serum (FBS) (Gibco, 26400044) and 1% penicillin/streptomycin (Gibco, 5140122) at 37° C. and 5% CO2. Cells were collected for either passaging or experiment at ˜70-80% confluence. Cells were obtained by trypsinization and seeded in cell culture microplates either white plate (Thermo Fisher Scientific, 152028) for luminescent measurement or black plate (Thermo Fisher Scientific, 165305) for fluorescent based read out for different assays listed below. Cells were obtained by trypsinization and […] were seeded and allowed to adhere for 16-18 hours to have confluency around 70-80% in the cell well with culture media. After 24 hours prior to measurements (37° C., 5% CO2) media was changed to Dulbecco's Modified Eagle Medium (DMEM, Agilent Seahorse cat #103575-100) with the appropriate supplements as stated below.
(§3) Primary fibroblasts assayed were Propionic Acidemia (PA) (GM03590 Coriell Institute for Medical Research, Tsi 6337 Trans-Hit Bio), Methylmalonic Acidemia (MMA) (Tsi 5224 Trans-Hit Bio), Subnormal activation of pyruvate dehydrogenase complex (PDH) (GM01503 Coriell Institute for Medical Research), Very long-chain acyl-CoA dehydrogenase (VLCAD) (GM17475), Leigh Syndrome (LS) (GM03672, GM13411 Coriell Institute for Medical Research), Pyruvate Carboxylase Deficiency (PC) (GM00444 Coriell Institute for Medical Research). 10 μM of Compounds were added for 2 hours in PA, MMA lines and for 24h for the other fibroblast lines.
(§4) Assay was performed according to manufacturer instructions (NAD/NADH-Glo Assay Promega, G9072). The NAD/NADH-Glo Assay is a bioluminescent assay for detecting total oxidized and reduced nicotinamide adenine dinucleotides (NAD+ and NADH, respectively) from which ratio of NAD/NADH can be calculated. Briefly, for every assay a 12-point standard curve was prepared ranging from 400 nM to 0.625 nM. Media was removed and replaced with 50 μl of PBS for both assays.
(§5) For individual NAD+ and NADH measurement, 50 μl of 1% DTAB (Sigma Cat #D5047) (cell lysis reagent) in 0.2N NaOH was added to the plate and a total 100 μl of lysate was split into two plates with 50 μl each. 25 μl of 0.4N HCl were added to the NAD+ plate and both NAD+ and NADH plate were heated at 60° C. for 15 minutes. The acid and heat treatment destroyed NADH allowing individual NAD+ measurement while heating in basic conditions destroys NAD+ allowed individual NADH measurements. The plates were allowed to come to room temperature for 10 minutes and Trizma base (Sigma, T1699) was added to the NAD+ plate to neutralize the acid and HCl Trizma hydrochloride (Sigma, T2694) was added to the NADH plate. The NADNADH glo reagent was prepared by adding: 625 μl of NAD cycling substrate, 125 μl of reductase, 125 μl of reductase substrate, 125 μl NAD cycling enzyme to total of the 25 ml of NAD GLO reagent. 1:1 ratio of total volume of reagent was added to the individual NAD+, NADH measurement (total 100 μl) and 50 μl for total NAD/NAH measurement. Luminescence was read between 30-60 minutes within the linear range.
(§6) A total dead cell count was performed as described in Example 817 and only alive cells were used for analysis.

[13] = tested on: Very long-chain acyl-CoA dehydrogenase (VLCAD) primary fibroblasts GM17475; assay: Total NAD+ + NADH and NAD+ (NAD/NADH-Glo), VLCAD fibroblasts GM17475; format: cell-based; conditions: Homo sapiens, Fibroblast, VLCAD GM17475 P10, assay condition A, 24h, read-out: Increase in Total NAD+ + NADH
Procedure: as §2, §3, §4, §5, §6

[14] = tested on: primary fibroblasts (healthy controls and PA, MMA, BCKDK, PDH, VLCAD, LS, PC, GA, VLCFA, KSS, FXN, HD); assay: Measurement of ROS (H2DCFDA) in primary fibroblasts; format: cell-based, human; conditions: Homo sapiens, procedure Example 812, Assay Condition C
How it was run: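 Patient and healthy-control primary fibroblasts switched to supplemented DMEM 24 h before assay, then treated with compound (10 μM) plus H2DCFDA (22 μM) for 2 h (PA, MMA lines) or 24 h (other lines). Kinetic fluorescence at 492/527 nm over 60 min; only live cells analysed.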

COC(=O)CCC(=O)SCCNC(=O)CCNC(=O)[C@H](OC(C)=O)C(C)(C)CO [Compound 213, methyl 4-[(2-[3-[(2R)-2-(acetyloxy)-4-hydroxy-3,3-dimethylbutanamido]propanamido]ethyl)sulfanyl]-4-oxobutanoate]
% decrease in MCP-1 [1]: ≥10%
% decrease in M-CSF ([2]; 1 uM): ≥10%
inhibition at 1 µM ([2]; Homo sapiens, HUVEC, 24 h, 1 uM, read-out: % decrease in IL-8): ≥ 10%
inhibition at 10 µM ([2]; Homo sapiens, HUVEC, 24 h, read-out: % decrease in IL-1α): ≥ 20%
inhibition at 10 µM ([2]; Homo sapiens, HUVEC, 24 h, read-out: % decrease in TissueFactor): ≥ 10%
inhibition at 1 µM [3]: ≥ 20%
inhibition at 10 µM [4]: ≥ 10%
% decrease in MMP-9 ([5]; 1 uM): ≥10%
% decrease in MCP-1 ([5]; 10 uM, procedure of 834): ≥10%
% decrease in IL-8 [6]: ≥10%
activation at 50 µM (HepG2 cells; 50 uM): ≥ 30%
activation at 10 µM [7]: ≥ 10%
activation at 10 µM ([8]; assay condition A (10 mM glucose, 2 mM L-glutamine, 1 mM pyruvate, 10% FBS), 10 μM, read-out: Increase in Spare Capacity AUC): ≥ 10%
activation at 50 µM ([8]; assay condition D (1 mM glucose, 10% FBS), read-out: Increase in Spare Capacity AUC): ≥ 10%
% decrease in sIL-2 ([9]; 1 uM, procedure of Example 829): ≥10%
% decrease in sTNFα ([9]; 1 uM, procedure of Example 829): ≥10%
% decrease in PBMC cytotoxicity ([9]; human, 72 h, 1 µM): ≥10%
% decrease in HLA-DR ([10]; 1 uM): ≥10%
% decrease in Tissue Factor ([10]; 1 uM): ≥10%
% decrease in M-CSF ([10]; 1 uM, procedure of Example 832): ≥10%
% decrease in VCAM-1 ([10]; 1 uM, procedure of Example 832): ≥10%
% decrease in CXCL9 ([10]; 10 uM): ≥10%
inhibition at 10 µM ([10]; Homo sapiens, 24 h, 10 uM, read-out: % decrease in Thrombomodulin): ≥ 20%
% decrease in MMP-9 [11]: ≥10%
activation at 10 µM ([11]; Homo sapiens, 24 h, read-out: % increase in VCAM-1): ≥ 10%

CC(=O)C(C(C)=O)C(=O)SCCNC(=O)CCNC(=O)[C@H](O)C(C)(C)CO [Compound 397, (2R)—N-[2-([2-[(2-acetyl-3-oxobutanoyl)sulfanyl]ethyl]arbamoyl)ethyl]-2,4-dihydroxy-3,3-dimethylbutanamide]
activation at 10 µM [12]: ≥ 10%
activation at 10 µM [13]: ≥ 10%
inhibition at 10 µM ([14]; Fibroblast, PDH GM01503, read-out: Decreased ROS by at least 10%): ≥ 10%
inhibition at 10 µM ([14]; Fibroblast, PDH GM01503, read-out: Decreased ROS by at least 30%): ≥ 30%
inhibition at 10 µM ([14]; FXN GM04078, read-out: Decreased ROS by at least 30%): ≥ 30%
activation at 10 µM (HepG2 cells; 10 uM): ≥ 20%
activation at 50 µM ([8]; assay condition C (10 mM glucose, 10% FBS), read-out: Increase in Maximal Respiratory Capacity AUC): ≥ 10%
